PubChem BioAssay AID1996
Values after ≈ are worked out from the molar mass of the structure shown.

Details: buffer; pH 7.4; 200.0 µM

Compared with `O=C(CNC(=O)c1ccccc1)NCc1nc2ccccc2[nH]1`, `COc1ccc2c(=O)c(C(=O)NCc3ccccc3)c[nH]c2c1` is 17-fold lower in solubility kinetic: 39.4 µg/mL (≈ 128 µM) for the first, 2.3 µg/mL (≈ 7.46 µM) for the second.

Compared with `O=C(Nc1ccc2ccccc2n1)Nc1cccs1`, `Cc1ccccc1NC(=S)Nc1cccc2cnccc12` is higher in solubility kinetic: under 0.2 µg/mL for the first, 34.2 µg/mL (≈ 117 µM) for the second.

Compared with `Cc1cccn(Cc2c(F)cccc2Cl)c1=O`, `Clc1ccc2c(c1)Nc1ccccc1CC2` is lower in solubility kinetic: over 37.8 µg/mL for the first, under 0.5 µg/mL for the second.

`Cc1ccccc1NC(=O)NCCCN1CCN(C)CC1` and `O=C(NCCN1CCCCC1)Nc1ccc(Br)cc1` cannot be ordered by solubility kinetic: over 43.6 µg/mL for the first, 48.4 µg/mL (≈ 148 µM) for the second.

First: CC(NCc1ccc(F)cc1)C(=O)NC1CCCCC1.O=C(O)C(=O)O (centres undefined)
Second: O=C(NC1CCCCC1)C(=O)c1c[nH]c2ccccc12
The solubility kinetic of the first is higher: over 55.3 µg/mL for the first, 1.1 µg/mL (≈ 4.07 µM) for the second.

Compared with `Clc1ccc2ccc3cccnc3c2n1`, `Cc1nc(Nc2ccc(Cl)cc2)c2oc3ccccc3c2n1` is lower in solubility kinetic: over 32.2 µg/mL for the first, under 0.2 µg/mL for the second.

Compared with `O=C(COC(=O)/C=C/c1cccc(Cl)c1)NCc1cccs1`, `O=C(/C=C/c1ccccc1)OCN1C(=O)c2ccccc2C1=O` is 2.3-fold lower in solubility kinetic: 6.1 µg/mL (≈ 18.2 µM) for the first, 2.6 µg/mL (≈ 8.46 µM) for the second.

`CCOc1ccccc1NC(=S)NCCc1ccc(F)cc1` and `Cc1ccc(CC(=O)O/N=C(\N)c2ccccn2)cc1` are within 1.5-fold of each other in solubility kinetic: 25.4 µg/mL (≈ 79.8 µM) for the first, 27.5 µg/mL (≈ 102 µM) for the second.

First: Cc1nc2sc3c(c2c(=O)[nH]1)CCCCC3
Second: Nc1cc(Cl)ccc1N1CCCCC1
The solubility kinetic of the first is 3.3-fold higher: 2 µg/mL (≈ 8.54 µM) for the first, 0.6 µg/mL (≈ 2.85 µM) for the second.

First: Cc1cccc(NC(=O)CCC(=O)N2CCOCC2)n1
Second: O=C(c1ccccc1O)N1CCOCC1
The solubility kinetic of the first is higher: over 41.6 µg/mL for the first, 30.5 µg/mL (≈ 147 µM) for the second.

First: Cc1ccc[n+](CC(=O)Nc2ccc([N+](=O)[O-])cc2)c1.[Cl-]
Second: Cc1cc(C)cc(OCC(=O)Nc2ccncc2)c1
The solubility kinetic of the first is higher: over 46.2 µg/mL for the first, 36.7 µg/mL (≈ 143 µM) for the second.

`CC1=NOC(=O)/C1=C\c1ccc(-c2ccc(Cl)c(C(=O)O)c2)o1` and `O=C(O)c1cc(-c2ccc(Cl)c(Cl)c2)n(-c2ccccc2)n1` cannot be ordered by solubility kinetic: over 49.8 µg/mL for the first, over 50 µg/mL for the second.

`NC(=O)CN1C(=O)NC2(CCCc3ccccc32)C1=O` (centres undefined) and `NS(=O)(=O)c1cc(C(=O)N2CCNC(=O)C2)ccc1Cl` cannot be ordered by solubility kinetic: over 41 µg/mL for the first, over 47.7 µg/mL for the second.

First: COCCNC(=O)CSc1ncnc2sc(-c3ccccc3)cc12
Second: Cc1cc2c(=O)n(C)c(SCC(=O)Nc3cccc(F)c3)nc2s1
The solubility kinetic of the first is higher: 1 µg/mL (≈ 2.78 µM) for the first, under 0.3 µg/mL for the second.

`O=C(Nc1ccc2c(c1)OCCO2)c1cccnc1Oc1ccccc1` and `Cc1ccc(C(=O)Nc2ccc3[nH]c(=O)[nH]c3c2)c(C)c1` are within 1.5-fold of each other in solubility kinetic: 4 µg/mL (≈ 11.5 µM) for the first, 3.9 µg/mL (≈ 13.9 µM) for the second.

`Cc1ccc2nc(Cn3cc(C(F)(F)F)ccc3=O)cc(=O)n2c1` and `COc1ccc(CC2SC(N)=NC2=O)cc1` (centres undefined) cannot be ordered by solubility kinetic: 47.4 µg/mL (≈ 141 µM) for the first, over 35.4 µg/mL for the second.

`O=C1CCC(C(=O)N2CCOCC2)CN1Cc1ccc(Cl)cc1` (centres undefined) and `O=C(C1CC2C=CC1C2)N1CCN(c2ccccc2)CC1` (centres undefined) cannot be ordered by solubility kinetic: over 50.5 µg/mL for the first, over 42.4 µg/mL for the second.

Going from `COc1ccc(/C(N)=N/OC(=O)c2cccs2)cc1` to `CC(=O)c1csc(COc2ccc(Cl)cc2)n1`, the solubility kinetic falls from 35.9 µg/mL (≈ 130 µM) to 3 µg/mL (≈ 11.2 µM) (12-fold).

First: CC1CN(C(=S)Nc2cccc(Cl)c2)CC(C)O1 (centres undefined)
Second: CC1CCCC(NC(=O)COC(=O)COc2cccc(F)c2)C1C (centres undefined)
The solubility kinetic of the first is higher: over 42.7 µg/mL for the first, 20.2 µg/mL (≈ 59.9 µM) for the second.

Compared with `Cc1cccc(NC(=O)c2cc3c(s2)-c2c(C)cccc2OC3)n1`, `O=C(c1cccc(S(=O)(=O)N2CCCc3ccccc32)c1)N1CCN(c2ccccc2)CC1` is higher in solubility kinetic: under 0.4 µg/mL for the first, 3.6 µg/mL (≈ 7.8 µM) for the second.

`COCCn1c(SCC(=O)NC2CCCC2)nnc1-c1ccco1` and `CCCCNC(=O)CSc1nc(O)cc(=O)n1C1CCCC1` cannot be ordered by solubility kinetic: over 52.6 µg/mL for the first, over 48.8 µg/mL for the second.

Compared with `CN(C)c1cccc2c1c(NS(=O)(=O)c1cn(C)cn1)nn2C`, `O=[N+]([O-])c1ncc(Br)cc1Nc1ccccc1` is lower in solubility kinetic: over 50.2 µg/mL for the first, 16.3 µg/mL (≈ 55.4 µM) for the second.

Going from `CC(=O)Nc1ccc(C(=O)NCCCOC(C)C)cc1` to `COc1ccc(CCNC(=O)C(=O)NCC2CCNCC2)cc1OC`, the solubility kinetic rises from 39.6 µg/mL (≈ 142 µM) to over 52.4 µg/mL.

`CCN1CCN(Cc2cc3c(cc2[N+](=O)[O-])OCO3)CC1` and `CC(C)n1c(CN2CCN(Cc3ccccc3)CC2)nc2ccccc21` are within 1.5-fold of each other in solubility kinetic: 41.1 µg/mL (≈ 140 µM) for the first, 34.8 µg/mL (≈ 99.9 µM) for the second.

Work on `c1ccc(C2Nc3ccccc3C3OCCCC23)cc1` (centres undefined) yielded a solubility kinetic of 7.3 µg/mL (≈ 27.5 µM).
